Patent US10172356B2, “Bipyridine compound and use of same for noxious arthropod control” (Sumitomo Chemical Company, Limited, priority 2015, dated 2019)

Experiments:
Format in all cases: in vivo
[1] = system: cabbage moth (Plutella xylostella); test: Test Example 7: cabbage moth on sprayed cabbage, 500 ppm; details: 120 h, 20 mL/cup sprayed on cabbage, second instar larvae, after 5 days, 25° C., read-out: Mortality of insects
Experimental: Each of the compounds S-1, S-5, S-7, S-8, S-9, S-10, O-1, and O-2 was made to a formulation according to a similar method to that described in the Formulation example 5 and was then diluted with water so that each of the active ingredient concentration was set to 500 ppm to prepare each of the diluted solution.
A cabbage in the third leaf stage was planted in a polyethylene cup, and thereto was sprayed the diluted solution in ratio 20 mL/cup. After the above-mentioned dilutions were dried, and the stem and leaf thereof was cut and then was stalled in a 50 mL cup, and five heads of cabbage moth (Plutella xylostella) at the second instar larval stages were released into the cup and the cup was covered with the lid. The cup was held at 25° C. and after 5 days, the number of died insects was counted and the mortality of insects was calculated by the following equation. Mortality of insects (%)=(Number of dead insects/Number of tested insects)×100

[2] = system: western corn rootworm (Diabrotica virgifera virgifera); test: Test Example 10: western corn rootworm on corn seedling immersed in diluted solution, 500 ppm; details: 120 h, corn seedling immersed 30 seconds, second instar larvae, after 5 days, 25° C., read-out: Mortality of insects
Experimental: The compound S-1 was mixed with a mixed solution of acetone and polyoxyethylene sorbitan mono-cocoate (acetone and polyoxyethylene sorbitan mono-cocoate=95 : 5 (weight ratio)) a ratio of 50 μL of the mixed solution per 1 mg of the compound S-1, and the resulting mixtures were then diluted with ion-exchange water containing 0.03% by volume of shindain (registered trademark, manufactured by Sumitomo Chemical Co. Ltd.) so that the concentration of the compound S-1 was set to 500 ppm to prepare the diluted solution of the compound S-1.
Corns (Xea mays) were sown on a tray overlaid with damped KimWipes (registered trademark). After corns were grown for 5 days, the entire seedling of the corn was immersed into the diluted solution for 30 seconds. After the seedling was dried, two grains of the seedling were installed in a plastic petri dish ([…]), and ten heads of western corn rootworm (Diabrotica virgifera virgifera) at the second instar larval stages were released onto the petri dish and the petri dish was covered with the lid. The petri dish was held at 25° C. and after 5 days, the number of died insects was counted and the mortality of insects was calculated by the following equation. Mortality of insects (%)=(Number of dead insects/Number of tested insects)×100
Similarly, using the compounds S-2, S-3, S-7, S-10, O-1 and O-2 instead of the compound S-1, the tests were carried out.

[3] = system: cabbage moth (Plutella xylostella); test: Test Example 8: cabbage moth on sprayed cabbage, 200 ppm; details: 120 h, 20 mL/cup sprayed on cabbage, second instar larvae, after 5 days, 25° C., read-out: Mortality of insects
Experimental: Each of the compounds S-7, S-8, S-9, S-10, and O-2 was made to a formulation according to a similar method to that described in the Formulation example 5 and was then diluted with water so that each of the active ingredient concentration was set to 200 ppm to prepare each of the diluted solution.
A cabbage in the third leaf stage was planted in a polyethylene cup, and thereto was sprayed the diluted solution in a ratio of 20 mL/cup. After the above-mentioned dilutions were dried, and the stem and leaf thereof was cut and then was installed in a 50 mL cup, and five heads of cabbage moth (Plutella xylostella) at the second instar larval stages were released into the cup and the cup was covered with the lid. The cup was held at 25° C. and after 5 days, the number of died insects was counted and the mortality insects was calculated by the following equation. Mortality of insects (%)=(Number of dead insects/Number of tested insects)×100

[4] = system: cotton aphid (Aphis gossypii); test: Comparative Experiment 2 (method of Test Example 2: cotton aphid, spray, 200 ppm); details: cotton aphid on cucumber seedling, 200 ppm (method of Test Example 2)
Experimental: Cucumber seedling (on the developmental stage of the first true leaf) was planted in a polyethylene cup and 30 heads of cotton aphid (Aphis gossypii) (all stages of life) were released onto the leaves of the cucumber and allowed to stand for 1 day. The diluted solutions 20 mL were sprayed into the seedling. Cucumber (cv; Sagami-hanjiro-fushinari) was grown in a polyethylene cup until the first true leaf was developed. Approximately 30 heads of cotton aphid (Aphis gossypii) (including the adults and the larvae) was released onto the leaves of the […] and next day, the above-mentioned testing drug dilutions 20 mL were sprayed. After 6 days, the number of the surviving insects that were parasitic on the leaves of the cucumber was examined and the controlling value was calculated by the following equation. Controlling value (%)={1-(Cb×Tai)/(Cai×Tb)}×100 wherein the symbols in the formula represent the following descriptions. Cb: Number of the insects before treatment in untreated area; Cai: Number of the surviving parasitic insects at the time of the investigation in untreated area; Tb: Number of the insects before treatment in treated area; Tai: Number of the surviving parasitic insects at the time of the investigation in treated area; Here the “untreated area” represents an area that was sprayed by a diluted solution of the formulation described in the Formulation Example 5 without the compound A with water in the same amount as that of the treated area. […] Here A represents 100%, B represents 90 to 99%, C represents 60 to 89%, D represents 30 to 59% and represents 0 to 29% as a control value.

[5] = system: cotton aphid (Aphis gossypii); test: Comparative Experiment 3 (method of Test Example 3: cotton aphid, irrigation, 200 ppm); details: cotton aphid on cucumber seedling, irrigation into plant foot, 200 ppm (method of Test Example 3)
Experimental: Cucumber seedling (on the developmental stage of the second true leaf) was planted in a polyethylene cup, and the diluted solutions 5 mL were irrigated into the plant foot, and the plants were held at 25° C. in a greenhouse for 7 days. Approximately 30 heads of cotton aphid (Aphis gossypii) (all stages of life) were inoculated onto the cucumber leaves and the plants were held in a greenhouse for additional 6 days, and then the number of the surviving […] parasitic on the cucumber leaves was examined and the controlling value was calculated by the following equation. Controlling value (%)={1-(Cb×Tai)/(Cai×Tb)}×100 wherein the symbols in the formula represent the following descriptions. Cb: Number of the insects before treatment in untreated area; Cai: Number of the surviving parasitic insects at the time of the investigation in untreated area; Tb: Number of the insects before treatment in treated area; Tai: Number of the surviving parasitic insects at the time of the investigation in treated area; Here the “untreated area” represents an area that was sprayed by a diluted solution of the formulation described in the Formulation Example 5 without the compound A with water in the same amount as that of the treated area. […] Here A represents 100%, B represents 90 to 99%, C represents 60 to 89%, D represents 30 to 59% and represents 0 to 29% as a control value.

[6] = system: brown planthopper (Nilaparvata lugens); test: Comparative Experiment 5 (method of Test Example 5: brown planthopper, spray, 200 ppm); details: brown planthopper on rice seedling, 200 ppm (method of Test Example 5)
Experimental: Rice seedling (on the developmental stage of the second true leaf) was planted in a polyethylene cup, and the diluted solutions 10 mL were sprayed. After air drying, 20 heads of 3rd to 4th instar larvae of brown planthopper (Nilaparvata lugens) were released onto the rice leaves and the plants were held at 25° C. in a greenhouse. After 6 days, the number of the surviving insects that were parasitic on the leaves of the rice was examined and the controlling value was calculated by the following equation. Controlling value (%)={1-(Cb×Tai)/(Cai×Tb)}×100 wherein the symbols in the formula represent the following descriptions. Cb: Number of the insects before treatment in untreated area; Cai: Number of the surviving parasitic insects at the time of the investigation in untreated area; Tb: Number of the insects before treatment in treated area; Tai: Number of the surviving parasitic insects at the time of the investigation in treated area; Here the “untreated area” represents an area that was sprayed by a diluted solution of the formulation described in the Formulation Example 5 without the compound A with water in the same amount as that of the treated area. […] Here A represents 100%, B represents 90 to 99%, C represents 60 to 89%, D represents 30 to 59% and represents 0 to 29% as a control value.

[7] = system: female adult housefly (Musca domestica); test: whole plant or invertebrate; details: 24 h, read-out: Mortality of insects
Experimental: Each of the compounds S-2, S-3, S-7, S-8, and N-1 was made to a formulation according to a similar method to that described in the Formulation example 5 and was then diluted with water so that each of the active ingredient concentration was set to 500 ppm to prepare each of the diluted solution.
The bottom of the polyethylene cup having 5.5 cm diameter was matted with the same size of a filter paper, and 0.7 mL of the diluted solution was added dropwise to the filter paper and 30 mg sucrose as bait was placed in the cup uniformly. Ten (10) heads of female adult housefly (Musca domestica) were released into the polyethylene cup and the cup was covered with the lid. After 24 hours, the life and death of housefly was examined and the number of died insects was counted and the mortality of insects was calculated by the following equation. Mortality of insects (%)=(Number of dead insects/Number of tested insects)×100

SMILES | mortality at 500 ppm [1] | mortality at 500 ppm [2] | mortality at 200 ppm [3] | control value, Comparative Experiment 2 [4] | control value, Comparative Experiment 3 [5] | control value, Comparative Experiment 5 [6] | mortality at 500 ppm [7]
CCS(=O)(=O)c1cccnc1-c1ccc(OS(=O)(=O)C(F)(F)F)cn1 [Compound O-1] | ≥ 80% | ≥ 80% | – | – | – | – | –
CCS(=O)(=O)c1cccnc1-c1ccc(OS(=O)(=O)CC(F)(F)F)cn1 [Compound O-2] | ≥ 80% | ≥ 80% | ≥ 80% | – | – | – | –
CCS(=O)(=O)c1cccnc1-c1ccc(SCC(F)(F)F)cn1 [Compound S-1] | ≥ 80% | – | – | A (A represents 100%) | B (B represents 90 to 99%) | A (A represents 100%) | –
CCS(=O)(=O)c1cccnc1-c1ccc(SCC(F)(F)C(F)(F)F)cn1 [Compound S-4] | – | ≥ 80% | – | – | – | – | –
CCS(=O)(=O)c1cccnc1-c1ccc(SC(F)(F)F)cn1 [Compound S-7] | ≥ 80% | ≥ 80% | ≥ 80% | A (A represents 100%) | A (A represents 100%) | A (A represents 100%) | 100%
CCS(=O)(=O)c1cccnc1-c1ccc([S+]([O-])C(F)(F)F)cn1 (centres unmarked) [Compound S-8] | – | – | – | A (A represents 100%) | A (A represents 100%) | A (A represents 100%) | –
FC(F)(F)CSc1ccc(-c2ccc(C(F)(F)F)cc2)nc1 [Compound V-7, reference compound] | – | – | – | E (represents 0 to 29% as a control value) | E (represents 0 to 29% as a control value) | D (D represents 30 to 59%) | –
FC(F)(F)Sc1ccc(-c2ccc(C(F)(F)F)cc2Cl)nc1 [Compound V-11, reference compound] | – | – | – | E (represents 0 to 29% as a control value) | E (represents 0 to 29% as a control value) | E (represents 0 to 29% as a control value) | –
[O-][S+](c1ccc(-c2ccc(C(F)(F)F)cc2Cl)nc1)C(F)(F)F (centres unmarked) [Compound V-12, reference compound] | – | – | – | E (represents 0 to 29% as a control value) | E (represents 0 to 29% as a control value) | E (represents 0 to 29% as a control value) | –
